1 substance from patent US5505944A, “Physiologically active substance NK175203, process for production thereof and pharmaceutical use thereof” (Nippon Kayaku Kabushiki Kaisha, priority 1992, dated 1996) can be followed below.

This assay concerns bone marrow cells. As to the kind of experiment: Bone marrow cell proliferation activity (uptake of [3H]-thymidine). The class given is cell-based, C57BL/6 mouse. The following applies: GM-CSF 100 U/ml alone, NK175203 0 μg/ml. On the procedure:
The femur was withdrawn from C57BL/6 mouse (10 weeks old) and the bone marrow cells were washed out in Eagle's MEM medium. After allowing to stand at 37° C. for 2 hours in 5% CO2, the supernatant was gently taken to recover the suspended cells alone. The cells were centrifuged at 1200 rpm for 5 minutes to collect the cells. After rinsing with α-MEM medium, the cells were suspended in 20% FBS-containing α-MEM medium. The thus obtained bone marrow cells were inoculated on a 96-well plate in a concentration of 7.5×10^5 cells/200 μl/well, together with the physiologically active substance NK175203 of the present invention or GM-CSF (Lantrell, M. A. et al., Proc. Natl. Acad. Sci., 8.2, 6250-6254, 1985). Incubation was then performed at 37° C. for 112 hours in 5% CO2. Finally ^3 H-thymidine of 37 KBq was added to the system. After culturing for 8 hours, uptake of ^3 H-thymidine into the cells was determined by a liquid scintillation counter.

With “GM-CSF: GM-CSF (Lantrell, M. A. et al., Proc. Natl. Acad. Sci.)”, the “Uptake of [3H]-Thymidine, mean ± standard error” value is 33484.4 ± 2136.1. Moreover, the “Uptake of [3H]-Thymidine, %” value (reference (100%) of the GM-CSF series) turned out to be 100%.
